In patent publication US4225610A, “Immunoactivators derived from amino thiazoles” (Pierre Fabre, S.A., priority 1977, dated 1980):
Values joined by “and” are separate entries in the source; they are usually repeats but may differ in a detail not shown here. Equal entries are not always repeated. “Also recorded” adds a separate entry of the source. Where two headings read alike, the source gives them in different places.

Assays:
mice = assay: in vivo; assay type: in vivo
Text: (§1) The acute toxicity after a single administration of the products per os was studied in mice.
(§2) The compounds were placed in suspension in a mixture of Tween 80™ and distilled water. […] Exper.

in vivo = assay type: in vivo; conditions: mouse, in vivo, po; mice, per os, single administration, 7 days
Text: as §1, §2

[1] = tested on: Delayed Hypersensitivity Pleurisy to Bordetella pertussis; assay: Pleurisy of delayed hypersensitivity to Bordetella pertussis in rats after chronic treatment; assay type: in vivo; conditions: for Action on the volume of exudate / Action on the number of mononuclears / Action on the number of polynuclears / Action on the total number of leukocytes: 5 mg/kg p.o.; for Delayed hypersensitivity pleural inflammation (in words) / Action compared with levamisole (in words): orally, chronic treatment, 5 mg/kg/administration; for Action compared with levamisole (in words): both treatment procedures
Experimental: II--Action on Pleurisy of Delayed Hypersensitivity to Bordetella pertussis in Rats After Chronic Treatment […]
Male rats weighing 280-320 g are used. The suspension of Bordetella pertussis used is the pertussis vaccine of the Pasteur Institute (5×10^9 killed bacilli per ml). The Bordetella pertussis suspension is mixed (V/V: 50/50) with Freund's complete adjuvant. 0.2 ml of this mixture is injected intramuscularly into each thigh of the rat.
6 days later, 0.1 ml of the Bordetella pertussis suspension is injected into the pleural cavity. 48 hours later, the pleural exudate formed is removed and measured. The total number of leukocytes and the number of mononuclears and polynuclears of the exudate are determined.
The products studied were administered chronically in accordance with two procedures:
Procedure 1: The treatment commences on the day of the sensitization and continues at the rate of one administration per day until the challenge injection. On the day of the latter the compounds are given twice: one administration before and one after the intrapleural injection of the antigen. The animals are treated a last time 24 hours later.
Procedure 2: The treatment commences three weeks before the sensitization. During these three weeks, the products are given at the rate of 5 times per week. The treatment is then continued as indicated above in Procedure 1.

[2] = tested on: cutaneous delayed hypersensitivity reaction to PPD; assay type: in vivo, albino guinea pigs
[3] = Chronic toxicity per os for two months in rats; conditions: rat, in vivo, po, read-out: Dose not resulting in any toxic phenomenon
[4] = 1000 mg/kg per os, 5 mice per lot
[5] = 200 mg/kg per os, 5 mice per lot

O=C(Nc1nc(-c2ccccc2)cs1)c1cccnc1 [F 1684, N(4-phenyl 2-thiazolyl) nicotinamide]
Mortality at the end of 7 days (mice; [4]): 0 | LD50 at 168 h (in vivo): > 1000 mg/kg | Solubility in DMA (Solubility): 5% | Solubility in methyl pyrrolidone (Solubility): 5% | Solubility in water (Solubility): insoluble

O=C(Nc1nc(-c2ccccc2)cs1)Oc1ccccc1 [F 1659, 4-phenyl 2-phenoxy carbamoyl thiazole]
Mortality at the end of 7 days (mice; [4]): 0 | LD50 at 168 h (in vivo): > 1000 mg/kg | Solubility in DMA (Solubility): 4% | Solubility in methyl pyrrolidone (Solubility): 3% | Solubility in water (Solubility): insoluble

O=C(Nc1nc(-c2ccc(Cl)cc2)cs1)c1cccnc1 [F 1685, N(4-parachlorophenyl 2-thiazolyl) nicotinamide]
Mortality at the end of 7 days (mice; [4]): 0 | LD50 at 168 h (in vivo): > 1000 mg/kg | Solubility in DMA (Solubility): 20% | Solubility in methyl pyrrolidone (Solubility): 20% | Solubility in water (Solubility): insoluble

CCOC(=O)Nc1nc(-c2ccccc2)cs1 [F 1658, 4-phenyl 2-(ethoxycarboxamido) thiazole]
Solubility in DMA (Solubility): 25% | Solubility in methyl pyrrolidone (Solubility): 25% | Solubility in water (Solubility): insoluble

CCCCCCCCCCCCCCCCCC(=O)Nc1nc(-c2ccccc2)cs1 [F 1656, 4-phenyl 2-stearamido thiazole]
Mortality at the end of 7 days (mice; [4]): 0 | LD50 at 168 h (in vivo): > 1000 mg/kg | Solubility in DMA (Solubility): 20% | Solubility in methyl pyrrolidone (Solubility): 20% | Solubility in water (Solubility): insoluble

Nc1nc(-c2ccc(Cl)cc2)cs1 [F 1654, 4-Parachloro-phenyl 2-amino thiazole]
Mortality at the end of 7 days (mice; [5]): 0 | Mortality at the end of 7 days (mice; 300 mg/kg per os, 5 mice per lot): 3 | Mortality at the end of 7 days (mice; 500 mg/kg per os, 5 mice per lot): 5 | LD50 at 168 h (in vivo): 300 mg/kg | Action on the volume of exudate ([1]; Treatment procedure 2): -41% | Delayed hypersensitivity pleural inflammation (in words) [1]: reduce the delayed hypersensitivity pleural inflammation | Action compared with levamisole (in words) [1]: superior to that of levamisole | Solubility in ethanol (Solubility): 15% | Solubility in water (Solubility): insoluble

O=C(Nc1nc(-c2ccc(Cl)cc2)cs1)OCC(Cl)(Cl)Cl [F 1660, 4-parachlorophenyl 2-(2'-2'-2'-trichloroethoxycarbamido) thiazole]
Mortality at the end of 7 days (mice; [4]): 0 | LD50 at 168 h (in vivo): > 1000 mg/kg | Solubility in DMA (Solubility): 20% | Solubility in methyl pyrrolidone (Solubility): 20% | Solubility in water (Solubility): insoluble

c1ccc([C@H]2CN3CCSC3=N2)cc1 [Levamisole, L-tetramisole, reference compound]
Action on the number of mononuclears ([1]; Treatment procedure 1): -11% | Action on the number of polynuclears ([1]; Treatment procedure 1): -9% | Action on the total number of leukocytes ([1]; Treatment procedure 1): -10% | Action on the volume of exudate ([1]; Treatment procedure 1): -22% | Action on the number of mononuclears ([1]; Treatment procedure 2): -17% | Action on the number of polynuclears ([1]; Treatment procedure 2): -7% | Action on the total number of leukocytes ([1]; Treatment procedure 2): -13% | Action on the volume of exudate ([1]; Treatment procedure 2): -23% | Effect on the response to PPD (in words) ([2]; guinea pig, in vivo): to a definitely lesser degree stimulate the response; also recorded: do not modify it significantly any longer

O=C(O)CCC(=O)Nc1nc(-c2ccccc2)cs1 [F 1657, N(4-phenyl 2-thiazolyl) succinamic acid]
Mortality at the end of 7 days (mice; [4]): 0 | LD50 at 168 h (in vivo): > 1000 mg/kg | Solubility in DMA (Solubility): 20% | Solubility in methyl pyrrolidone (Solubility): 25% | Solubility in water (Solubility): insoluble

O=C(O)CCC(=O)Nc1nc(-c2ccc(Cl)cc2)cs1 [F 1683, N(4-parachlorophenyl 2-thiazolyl) succinamic acid]
Mortality at the end of 7 days (mice; [4]): 0 | LD50 at 168 h (in vivo): > 1000 mg/kg | Solubility in DMA (Solubility): 20% | Solubility in methyl pyrrolidone (Solubility): 20% | Solubility in water (Solubility): insoluble

CCCCCCCCCCCC(=O)Nc1nc(-c2ccccc2)cs1 [F 1655]
Mortality at the end of 7 days (mice; [4]): 0 | LD50 at 168 h (in vivo): > 1000 mg/kg | Solubility in DMA (Solubility): 25% | Solubility in methyl pyrrolidone (Solubility): 25% | Solubility in water (Solubility): insoluble

O=C(Nc1nc(-c2ccc(Cl)cc2)cs1)Oc1ccccc1 [F 1687]
Mortality at the end of 7 days (mice; [4]): 0 | LD50 at 168 h (in vivo): > 1000 mg/kg | Solubility in DMA (Solubility): 5% | Solubility in methyl pyrrolidone (Solubility): 5% | Solubility in water (Solubility): insoluble

O=C(Nc1nc(-c2ccccc2)cs1)OCC(Cl)(Cl)Cl [F 1686, 4-phenyl-2-(2'-2'-2'-trichloroethoxycarboxamido) thiazole]
Mortality at the end of 7 days (mice; 1000 mg/kg per os, 10 mice per lot): 0 | LD50 at 168 h (in vivo): > 1000 mg/kg | Action on the number of mononuclears ([1]; Treatment procedure 1): -21% | Action on the number of polynuclears ([1]; Treatment procedure 1): -16% | Action on the total number of leukocytes ([1]; Treatment procedure 1): -19% | Action on the volume of exudate ([1]; Treatment procedure 1): -35% | Action on the number of mononuclears ([1]; Treatment procedure 2): -29% | Action on the number of polynuclears ([1]; Treatment procedure 2): -6% | Action on the total number of leukocytes ([1]; Treatment procedure 2): -22% | Action on the volume of exudate ([1]; Treatment procedure 2, 5 mg/kg): -50% and -42% | Delayed hypersensitivity pleural inflammation (in words) [1]: reduce the delayed hypersensitivity pleural inflammation | Action compared with levamisole (in words) [1]: superior to that of levamisole | Effect on the response to PPD (in words) ([2]; […], response of low intensity in controls (two to three weeks)): stimulate the response | Effect on the response to PPD (in words) ([2]; after 5 and 6 weeks): do not modify it significantly any longer | Stimulation of the reaction to the PPD (in words) ([2]; dependence on immune state): does not stimulate the reaction to the PPD except when the guinea pigs are in a state of hypoimmunization | Solubility in DMA (Solubility): 25% | Solubility in ethanol (Solubility): 3% | Solubility in methyl pyrrolidone (Solubility): 20% | Solubility in water (Solubility): insoluble | NOAEL at 1460 h [3]: ≤ 30 mg/kg/day

Nc1nc(-c2ccccc2)cs1 [F 1653, 4-phenyl 2-amino thiazole]
Mortality at the end of 7 days (mice; 100 mg/kg per os, 5 mice per lot): 0 | Mortality at the end of 7 days (mice; [5]): 5 | LD50 at 168 h (in vivo): 140 mg/kg | Solubility in dimethyl pyrrolidone (Solubility; dimethyl pyrrolidone): 20% | Solubility in ethanol (Solubility): 1% | Solubility in water (Solubility): insoluble
